Like-named read-outs stand apart in the source and are kept apart here.
Tests used:
Format in all cases: cell-based
[1] = system: Pseudomonas aeruginosa KCTC 1637; assay: Agar diffusion antibacterial test (aerobic); details: P. aeruginosa
[2] = system: Pseudomonas aeruginosa KCTC 1637; assay: MIC by broth dilution method; details: P. aeruginosa, 37° C., 24 hours
[3] = system: Yersinia enterocolitica KCCM 41657; assay: Agar diffusion antibacterial test (aerobic); details: Y. enterocolitica
[4] = system: Shigella flexneri KCTC 2517; assay: Agar diffusion antibacterial test (aerobic); details: S. flexneri
[5] = system: Aeromonas salmonicida KCTC 12266; assay: MIC by broth dilution method; details: A. salmonicida, 37° C., 24 hours
[6] = system: Streptococcus mutans KCTC 3065; assay: Agar diffusion antibacterial test (aerobic); details: S. mutans
[7] = system: Staphylococcus aureus KCTC 1916; assay: Agar diffusion antibacterial test (aerobic); details: S. aureus
[8] = system: Bacillus subtilis KCTC 1021; assay: Agar diffusion antibacterial test (aerobic); details: B. subtilis
[9] = system: Clostridium dificile KCCM 12115; assay: Agar diffusion antibacterial test (anaerobic); details: C. difficile
[10] = system: Helicobacter pylori KCTC 5335; assay: Agar diffusion antibacterial test (anaerobic); details: H. pylori
[11] = system: Shigella sonnei KCTC 2518; assay: Agar diffusion antibacterial test (aerobic); details: S. sonnei
[12] = system: Bordetella bronchiseptica KCCM 21998; assay: Agar diffusion antibacterial test (aerobic); details: B. bronchiseptica
[13] = system: Bacteroides fragilis KCTC 3688; assay: MIC by broth dilution method; details: B. fragilis, 37° C., 24 hours
[14] = system: Corynebacterium glutamicum KCTC 1445; assay: MIC by broth dilution method; details: C. glutamicum, 37° C., 24 hours
[15] = system: Escherichia coli KCTC 1039; assay: Agar diffusion antibacterial test (aerobic); details: E. coli
[16] = system: Bordetella bronchiseptica KCCM 21998; assay: MIC by broth dilution method; details: B. bronchiseptica, 37° C., 24 hours
[17] = system: Streptococcus mutans KCTC 3065; assay: MIC by broth dilution method; details: S. mutans, 37° C., 24 hours
[18] = system: Yersinia enterocolitica KCCM 41657; assay: MIC by broth dilution method; details: Y. enterocolitica, 37° C., 24 hours
[19] = system: Helicobacter pylori KCTC 5335; assay: MIC by broth dilution method; details: H. pylori, 37° C., 24 hours
[20] = system: Neisseria meningitidis KCCM 41562; assay: Agar diffusion antibacterial test (aerobic); details: N. meningitidis
[21] = system: Campylobacter jejuni KCTC 5327; assay: MIC by broth dilution method; details: C. jejuni, 37° C., 24 hours
[22] = system: Shigella flexneri KCTC 2517; assay: MIC by broth dilution method; details: S. flexneri, 37° C., 24 hours
[23] = system: Salmonella enteritidis KCTC 12400; assay: Agar diffusion antibacterial test (aerobic); details: S. enteritidis
[24] = system: Bacteroides fragilis KCTC 3688; assay: Agar diffusion antibacterial test (anaerobic); details: B. fragilis
[25] = system: Legionella pneumophila KCCM 41779; details: L. pneumophila
[26] = system: Neisseria meningitidis KCCM 41562; assay: MIC by broth dilution method; details: N. meningitidis, 37° C., 24 hours
[27] = system: 8 anaerobic bacterial species; assay: Agar diffusion antibacterial test, overall (anaerobic); details: 8 anaerobic bacterial spp, agar diffusion
[28] = system: Clostridium dificile KCCM 12115; assay: MIC by broth dilution method; details: C. difficile, 37° C., 24 hours

For C=C1C(=O)OC[C@H]1O [S-(−)-tulipalin B, (4S)-4-hydroxy-3-methylene-oxolan-2-one], the Inhibitory zone diameter ([1]; treatment concentration 0.3%) was 12 mm, the Inhibitory zone diameter ([1]; treatment concentration 1.0%) was 14 mm and the MIC [2] was 0.11%. The Inhibitory zone diameter ([3]; treatment concentration 0.03%) was 11.5 mm, the Inhibitory zone diameter ([3]; treatment concentration 0.1%) was 13 mm and the Inhibitory zone diameter ([3]; treatment concentration 0.3%) was 17 mm. For the same compound, the Inhibitory zone diameter ([3]; treatment concentration 1.0%) was 19 mm, the Inhibitory zone diameter ([4]; treatment concentration 0.03%) was 10.5 mm and the Inhibitory zone diameter ([4]; treatment concentration 0.1%) was 13 mm. It also gave an Inhibitory zone diameter ([4]; treatment concentration 0.3%) of 18 mm, an Inhibitory zone diameter ([4]; treatment concentration 1.0%) of 19 mm and an MIC [5] of 0.01%. For the same compound, the Inhibitory zone diameter ([6]; treatment concentration 0.1%) was 11 mm, the Inhibitory zone diameter ([6]; treatment concentration 0.3%) was 13 mm and the Inhibitory zone diameter ([6]; treatment concentration 1.0%) was 16 mm. For the same compound, the Inhibitory zone diameter ([7]; treatment concentration 0.1%) was 12 mm, the Inhibitory zone diameter ([7]; treatment concentration 0.3%) was 15 mm and the Inhibitory zone diameter ([7]; treatment concentration 1.0%) was 18 mm. It also gave an Inhibitory zone diameter ([8]; treatment concentration 0.03%) of 11 mm, an Inhibitory zone diameter ([8]; treatment concentration 0.1%) of 13 mm and an Inhibitory zone diameter ([8]; treatment concentration 0.3%) of 15 mm. It also gave an Inhibitory zone diameter ([8]; treatment concentration 1.0%) of 17 mm, an Inhibitory zone diameter ([9]; treatment concentration 0.1%) of 10.5 mm and an Inhibitory zone diameter ([9]; treatment concentration 0.3%) of 13 mm. The Inhibitory zone diameter ([9]; treatment concentration 1.0%) was 13 mm, the Inhibitory zone diameter ([10]; treatment concentration 0.01%) was 10.5 mm and the Inhibitory zone diameter ([10]; treatment concentration 0.03%) was 12 mm. For the same compound, the Inhibitory zone diameter ([10]; treatment concentration 0.1%) was 14 mm, the Inhibitory zone diameter ([10]; treatment concentration 0.3%) was 16 mm and the Inhibitory zone diameter ([10]; treatment concentration 1.0%) was 18 mm. It also gave an Inhibitory zone diameter ([11]; treatment concentration 0.03%) of 11 mm, an Inhibitory zone diameter ([11]; treatment concentration 0.1%) of 12 mm and an Inhibitory zone diameter ([11]; treatment concentration 0.3%) of 17 mm. For the same compound, the Inhibitory zone diameter ([11]; treatment concentration 1.0%) was 19 mm, the Inhibitory zone diameter ([12]; treatment concentration 0.03%) was 12 mm and the Inhibitory zone diameter ([12]; treatment concentration 0.1%) was 14 mm. For the same compound, the Inhibitory zone diameter ([12]; treatment concentration 0.3%) was 18 mm, the Inhibitory zone diameter ([12]; treatment concentration 1.0%) was 20 mm and the MIC [13] was 0.01%. The MIC [14] was 0.10%, the Inhibitory zone diameter ([15]; treatment concentration 0.01%) was 10.5 mm and the Inhibitory zone diameter ([15]; treatment concentration 0.03%) was 11.5 mm. The Inhibitory zone diameter ([15]; treatment concentration 0.1%) was 13 mm, the Inhibitory zone diameter ([15]; treatment concentration 0.3%) was 16 mm and the Inhibitory zone diameter ([15]; treatment concentration 1.0%) was 20 mm. It also gave an MIC [16] of 0.03%, an MIC [17] of 0.10% and an MIC [18] of 0.015%. For the same compound, the MIC [19] was 0.01%, the Inhibitory zone diameter ([20]; treatment concentration 0.03%) was 11 mm and the Inhibitory zone diameter ([20]; treatment concentration 0.1%) was 12 mm. The Inhibitory zone diameter ([20]; treatment concentration 0.3%) was 16 mm, the Inhibitory zone diameter ([20]; treatment concentration 1.0%) was 18 mm and the MIC [21] was 0.008%. It also gave an MIC [22] of 0.025%, an Inhibitory zone diameter ([23]; treatment concentration 0.03%) of 11 mm and an Inhibitory zone diameter ([23]; treatment concentration 0.1%) of 13 mm. The Inhibitory zone diameter ([23]; treatment concentration 0.3%) was 16.5 mm, the Inhibitory zone diameter ([23]; treatment concentration 1.0%) was 20 mm and the Inhibitory zone diameter ([24]; treatment concentration 0.01%) was 10.5 mm. The Inhibitory zone diameter ([24]; treatment concentration 0.03%) was 12 mm, the Inhibitory zone diameter ([24]; treatment concentration 0.1%) was 14 mm and the Inhibitory zone diameter ([24]; treatment concentration 0.3%) was 16 mm. The Inhibitory zone diameter ([24]; treatment concentration 1.0%) was 18 mm, the Inhibitory zone diameter ([25]; treatment concentration 0.03%) was 11 mm and the Inhibitory zone diameter ([25]; treatment concentration 0.1%) was 12 mm. The Inhibitory zone diameter ([25]; treatment concentration 0.3%) was 16 mm, the Inhibitory zone diameter ([25]; treatment concentration 1.0%) was 18 mm and the MIC [26] was 0.01%. The Antibacterial effects [27] was “relatively high antibacterial effects” and the MIC [28] was 0.10%.

Reference: patent US20080262082A1, “COMPOSITION CONTAINING S-(-)-TULIPALIN B OR ACETYLATED-S-(-)-TULIPALIN B” (BIO SPECTRUM, INC., priority 2007, published 2008)
